Data taken from patent US7674792B2, “5(Z)-5-(6-quinoxalinylmethylidene)-2-[2,6-dichlorophenyl)amino]-1,3-thiazol-4(5H)-one” (GlaxoSmithKline LLC, priority 2005, dated 2010).
Counter-ions that a name gives are not always drawn.

Experiments:
[1] = solubility in pH 7.4 phosphate buffer by HPLC; format: physicochemical; conditions: 25 °C, aqueous buffer; sodium salt; pH 7.4, 0.05M phosphate buffer; maximum total concentration 200 uM; 25 deg; read-out: Solvent Solubility at 25 deg, Water pH 7.4
Protocol: The solubility of each compound was determined as follows: two samples are prepared for each compound. One (the standard sample) contains the compound at a fixed concentration of 20 uM in an aqueous/organic mixed solvent cocktail. The other (the test sample) contains the compound at a maximum total concentration of 200 uM in pH 7.4, 0.05M phosphate buffer. The test sample is spun for 15 minutes to remove any undissovled solid. HPLC analyses are performed on these samples. The relative peak areas are used for computing the solubility. The sodium salt of each compound was used for the comparison.

[2] = oral blood exposure (DNAUC) in rats; format: in vivo, male Sprague-Dawley rats; parameters: unit not given here; conditions: sodium salt, oral gavage, dose ~1-4 mg/kg, 50% PEG-400, 10% ethanol, 40% of 40% (w/v) aqueous Encapsin
Protocol: Blood (120 microliters) was sampled at the following time intervals: 0, 20, 40, 60,120,180, 240, 360, 480, and 1440 min. […] The oral exposures of the sodium salt of Compound B and the sodium salt of Compound C were quantified by the same method.

[3] = bioavailability in the Beagle dog; format: in vivo
[4] = physical and chemical stability / hygroscopicity of the crystalline compound; format: physicochemical

Row | Structure (SMILES) | solubility [1] [µM] | Oral DNAUC rats (Sprague-Dawley) [2] | bioavailability [3] | hygroscopicity [4] | physical and chemical stability [4]
1 | O=C1NC(=Nc2c(Cl)cccc2Cl)S/C1=C\c1ccc2nccnc2c1 [Compound A · Na, (5Z)-5-(6-quinoxalinylmethylidene)-2-[(2,6-dichlorophenyl)amino]-1,3-thiazol-4(5H)-one sodium salt] | 31 | – | – | – | –
2 | O=C1NC(=Nc2c(Cl)cccc2Cl)S/C1=C\c1ccc2ncccc2c1 [Compound B · Na, 2-(2,6-dichloro-phenylimino)-5-(quinolin-6-ylmethylene)-thiazolidin-4-one sodium salt, reference compound] | 6 | 0.49 | – | – | –
3 | O=C1NC(=Nc2ccccc2Cl)S/C1=C\c1ccc2nccnc2c1 [Compound C · Na, 2-(2-chloro-phenylimino)-5-(quinoxalin-6-ylmethylene)-thiazolidin-4-one sodium salt] | – | 0.34 | – | – | –
4 | O=C1NC(=Nc2c(Cl)cccc2Cl)S/C1=C\c1ccc2nccnc2c1 [Compound D, (5Z)-5-(6-quinoxalinylmethylidene)-2-[(2,6-dichlorophenyl)amino]-1,3-thiazol-4(5H)-one meglumine] | – | – | demonstrated bioavailability | non-hygroscopic | physically and chemically stable
